# Data as given in patent US20100240682A1, “PHOPHYLACTIC OR THERAPEUTIC AGENT FOR INFLAMATORY DISEASE COMPRISING THYMIDINE PHOSPHORYLASE INHIBITOR AS ACTIVE INGREDIENT” (TAIHO PHARMACEUTICAL CO., LTD., priority 2007, published 2010).
# Experiments:
# [1] = test system: rats having hydrochloric-acid-induced cystitis; experiment: Hydrochloric-acid-induced cystitis model rat, bladder functions by cystometry; assay type: in vivo; conditions: TPI 5, 50 or 100 mg/kg orally once a day for seven days; vs control group
# Protocol: To rats having hydrochloric-acid-induced cystitis serving as a cystitis model, 5-chloro-6-(2-iminopyrrolidin-1-yl)methyl-2,4(1H,3H)-pyrimidinedione hydrochloride (hereinafter abbreviated as “TPI”) (5, 50, or 100 mg/kg) was orally administered continuously for seven days, and the effect of TPI on bladder functions was evaluated. Specifically, 10-week-old SD rats were divided into groups (n=6) on the basis of body weight. To each of the rats of the control group and TPI administration groups, 0.4N HCl (0.2 mL) was intravesically administered once to the bladder under pentobarbital anesthesia (50 mg/kg, i.p.), to thereby induce a cystitis model. To a Sham group, saline (0.2 mL) was intravesically administered. From the day following the induction of cystitis model, distilled water for injection (5 mL/kg) was administered to the Sham and control groups, while distilled water for injection (5 mL/kg) containing TPI (5, 50, or 100 mg/kg) was administered to the TPI administration groups. In each case, the liquid was administered by forced oral administration once a day continuously for seven days. On the day following the final administration day, bladder functions (urination intervals and single urination output) of the rats of each group were evaluated through cystometry under anesthesia in accordance with a method described in BJU Int. 2007 October; 100(4): 935-9.
# [2] = test system: rats having hydrochloric-acid-induced cystitis; experiment: Hydrochloric-acid-induced rat interstitial cystitis model, histological changes of the bladder (HE staining); assay type: in vivo
# Protocol: To rats having hydrochloric-acid-induced cystitis serving as an interstitial cystitis model, TPI (50 or 500 mg/kg) was orally administered continuously for seven days, and the effect of TPI on pathological histological improvement of the bladder tissue was evaluated. Specifically, 10-week-old SD rats were divided into groups (n=6) on the basis of body weight. To each of the rats of a control group and TPI administration groups, 0.4N HCl (0.2 mL) was intravesically administered once to the bladder under pentobarbital anesthesia (50 mg/kg, i.p.), to thereby induce a cystitis model. To a Sham group, saline (0.2 mL) was intravesically administered. From the day following the induction of cystitis model, distilled water for injection (5 mL/kg) was administered to the Sham and control groups, while distilled water for injection (5 mL/kg) containing TPI (50 or 500 mg/kg) was administered to the TPI administration groups. In each case, the liquid was orally administered continuously once a day for seven days. On the day following the final administration day, the bladder was removed from each of the rats under ether anesthesia and washed with saline. Subsequently, the washed bladder was fixed with 20% buffered formalin and 10% buffered formalin, followed by HE staining. Histological changes of the bladder were observed. […]
# collagen arthritis mice = experiment: Collagen arthritis model mouse, arthritis score; assay type: in vivo; conditions: 500 mg/kg orally once a day; 11 to 14 days after second immunization
# Protocol: TPI (250 or 500 mg/kg) was orally administered to collagen arthritis mice (i.e., rheumatic model) continuously for 14 days, and the effect of TPI on edema of the limbs of each mouse was evaluated. Arthritis was induced in […] mice by type II collagen induction, and the mice were employed as a rheumatoid arthritis model. Specifically, type II collagen derived from bovine joint (K42, product of Collagen Gijyutsu Kensyukai) (200 μg) was suspended in Freund's complete adjuvant (DIFCO) (100 μL), and on day 1, the suspension was intradermally administered to the back of 8-week-old mice (DBA/1JN mice, Charles River Laboratories Japan Inc.). On day 21, type II collagen derived from bovine joint (K42) (200 μg) suspended in Freund's complete adjuvant (100 μL) was intradermally administered to the tail portion of each mice, to thereby induce an arthritis model. To the TPI administration groups, TPI (250 or 500 mg/kg/day) was orally administered continuously once a day during a period from day 21 to day 40. To the control, a solvent (0.5% aqueous HPMC) was administered instead of TPI according to the same administration schedule as employed in the TPI administration groups. […] The arthritis condition was evaluated on day 42; i.e., the day following the final administration day. […]
# [3] = test system: rats in which ulcer had been induced by hydrochloric acid; experiment: Hydrochloric-acid-induced acute gastritis model rat, gastric mucosal damage (lesion length); assay type: in vivo; conditions: control 120.4±8.5 mm
# Protocol: TPI (100 or 200 mg/kg) was orally single-administered to rats in which ulcer had been induced by hydrochloric acid (i.e., an acute gastritis model), and the preventive effect of TPI on mucosal damage was evaluated. Specifically, 7-week-old female SD rats (Charles River Laboratories Japan Inc.) were fasted for about 18 hours. To the TPI administration groups, TPI (100 or 200 mg/kg) was orally administered, and after 30 minutes 0.6N HCl (5 mL/kg) was orally administered. To the control group, only 0.6N HCl (5 mL/kg) was orally administered. One hour after administration of hydrochloric acid, rats were euthanized through, and the stomach was removed from each rat. The tissue thereof was fixed with 1% formaline buffer, and the stomach was cut through the greater curvature. The longer diameter (mm) of a lesion was measured by means of an electronic caliper, and the total of the diameters was employed as an index for evaluating gastric mucosal damage.
# [4] = test system: concanavalin-A-induced hepatitis model mice; experiment: Concanavalin-A-induced hepatitis model, serum AST and ALT; assay type: in vivo, mouse; conditions: TPI 100 mg/kg oral, 30 min before concanavalin A i.v., 24 h after
# Protocol: TPI (100 mg/kg) was orally single-administered to […] in which hepatitis had been induced by concanavalin A (i.e., a hepatitis model), and the inhibitory effect of TPI on hepatitis was evaluated. Specifically, 6-week-old female C57BL/6NCrlCrlj mice (Charles River Laboratories Japan Inc.) were employed. To the TPI administration group, TPI (100 mg/kg) was orally administered, and after 30 minutes 2 mg/mL concanavalin A (150 μL/animal) was intravenously administered through the tail vein. To the control group, only a vehicle was orally administered instead of TPI. […] The serum ALT level (IU/L) and AST level (IU/L) were determined as index for liver disorders.
# [5] = test system: IL-6 production in human monocytes cell line U937; experiment: IL-6 production by PMA/thymidine-stimulated U937 cells; assay type: cell-based; conditions: U937 after 10 ng/mL PMA and 10 μmol/L thymidine; 48 h after drug addition; vs control group
# Protocol: Human monocytes cell line U937 were cultured using a 10% FBS RPMI 1640 medium (SIGMA-ALDRICH) at 37° C. under 5% CO2. Using a 24-well plate, U937 cells (1×10^5) were cultured for 24 hours in a medium containing 10 ng/mL phorbol-12-myristate-13-acetate (inflammatory substance, hereinafter abbreviated to as PMA) and 10 μmol/L thymidine in order for induction of inflammatory reaction. Twenty-four hours later, the medium was changed to fresh medium. To the drug administration group, TUPI or TPI was added. Forty-eight hours after the addition, the IL-6 level of each culture supernatant was determined by means of BioPlex (Bio-Rad Laboratories, Inc.).
structure (smiles),measurement,setting,value
"Cl.N=C1CCCN1Cc1[nH]c(=O)[nH]c(=O)c1Cl [TPI, 5-chloro-6-(2-iminopyrrolidin-1-yl)methyl-2,4(1H,3H)-pyrimidinedione hydrochloride]","bladder functions (urination interval, single urination output, effective vesical capacity, residual urine)",[1],improved in response to the administration amount
same,"Entire bladder: Thickening/proliferation of transitional epithelium, number of samples","[2]; TAS-111 (50), grade +",1
same,"Lamina propria: Edema, number of samples","[2]; TAS-111 (50), grade +",0
same,"Lamina propria: Infiltration of mast cells/eosinocytes, number of samples","[2]; TAS-111 (50), grade +",1
same,"Tunica muscularis: Edema, number of samples","[2]; TAS-111 (50), grade +",2
same,"Tunica muscularis: Infiltration of mast cells/eosinocytes, number of samples","[2]; TAS-111 (50), grade +",2
same,"Entire bladder: Thickening/proliferation of transitional epithelium, number of samples","[2]; TAS-111 (50), grade ++",2
same,"Lamina propria: Edema, number of samples","[2]; TAS-111 (50), grade ++",2
same,"Lamina propria: Infiltration of mast cells/eosinocytes, number of samples","[2]; TAS-111 (50), grade ++",2
same,"Tunica muscularis: Edema, number of samples","[2]; TAS-111 (50), grade ++",0
same,"Tunica muscularis: Infiltration of mast cells/eosinocytes, number of samples","[2]; TAS-111 (50), grade ++",0
same,"Entire bladder: Thickening/proliferation of transitional epithelium, number of samples","[2]; TAS-111 (50), grade +++",0
same,"Lamina propria: Edema, number of samples","[2]; TAS-111 (50), grade +++",0
same,"Lamina propria: Infiltration of mast cells/eosinocytes, number of samples","[2]; TAS-111 (50), grade +++",0
same,"Tunica muscularis: Edema, number of samples","[2]; TAS-111 (50), grade +++",0
same,"Tunica muscularis: Infiltration of mast cells/eosinocytes, number of samples","[2]; TAS-111 (50), grade +++",0
same,"Entire bladder: Thickening/proliferation of transitional epithelium, number of samples","[2]; TAS-111 (500), grade +",1
same,"Lamina propria: Edema, number of samples","[2]; TAS-111 (500), grade +",0
same,"Lamina propria: Infiltration of mast cells/eosinocytes, number of samples","[2]; TAS-111 (500), grade +",2
same,"Tunica muscularis: Edema, number of samples","[2]; TAS-111 (500), grade +",0
same,"Tunica muscularis: Infiltration of mast cells/eosinocytes, number of samples","[2]; TAS-111 (500), grade +",0
same,"Entire bladder: Thickening/proliferation of transitional epithelium, number of samples","[2]; TAS-111 (500), grade ++",0
same,"Lamina propria: Edema, number of samples","[2]; TAS-111 (500), grade ++",1
same,"Lamina propria: Infiltration of mast cells/eosinocytes, number of samples","[2]; TAS-111 (500), grade ++",0
same,"Tunica muscularis: Edema, number of samples","[2]; TAS-111 (500), grade ++",0
same,"Tunica muscularis: Infiltration of mast cells/eosinocytes, number of samples","[2]; TAS-111 (500), grade ++",0
same,"Entire bladder: Thickening/proliferation of transitional epithelium, number of samples","[2]; TAS-111 (500), grade +++",0
same,"Lamina propria: Edema, number of samples","[2]; TAS-111 (500), grade +++",0
same,"Lamina propria: Infiltration of mast cells/eosinocytes, number of samples","[2]; TAS-111 (500), grade +++",0
same,"Tunica muscularis: Edema, number of samples","[2]; TAS-111 (500), grade +++",0
same,"Tunica muscularis: Infiltration of mast cells/eosinocytes, number of samples","[2]; TAS-111 (500), grade +++",0
same,arthritis scores,collagen arthritis mice,significant suppression
same,gastric mucosal damage (total of longer diameters of lesions),"[3]; TPI 100 mg/kg oral single dose 30 min before 0.6N HCl, significantly reduced",63.0±14.3 mm
same,gastric mucosal damage (total of longer diameters of lesions),[3]; TPI 200 mg/kg oral single dose 30 min before 0.6N HCl,76.1±18.3 mm
same,serum AST level,"[4]; control 4,506±864","1,540±477 IU/L"
same,serum ALT level,"[4]; control 6,130±800","2,538±755 IU/L"
same,IL-6 level of culture supernatant,[5],more significant suppression
"Nc1[nH]c(=O)[nH]c(=O)c1Cl [TUPI, 5-chloro-6-aminouracil, reference compound]",IL-6 level of culture supernatant,[5],more significant suppression
